The source made the active and inactive calls. The calls are words filed in the database; no cut-off is given here.
Tests used:
J774 = assay: Cytotoxicity against mouse J774 cells by alamar blue assay; assay type: cell-based
[1] = Cytotoxicity against mouse leukemic cells; assay type: functional, cell-based; details: Leukemic tumor cell line
[2] = system: Trypanosoma brucei brucei; assay: Antitrypanosomal activity against Trypanosoma brucei brucei bloodstream trypomastigotes by alamar blue assay; assay type: functional, organism-based
[3] = Cytotoxicity against human leukemia cells; assay type: functional, cell-based; details: Leukemia cell
[4] = Cytotoxicity against human lung cancer cells; assay type: functional, cell-based; details: Cancer cell lines
[5] = Cytotoxicity against human colon cancer cells; assay type: functional, cell-based; details: Cancer cell lines
[6] = Selectivity index, ratio of IC50 for mouse J774 cells to IC50 for Trypanosoma brucei brucei bloodstream trypomastigotes; assay type: functional
Trypanosoma cruzi [7] = assay: Antitrypanosomal activity against South American Trypanosoma cruzi bloodstream trypomastigotes at 21 uM; assay type: functional
Trypanosoma cruzi [8] = assay: Antitrypanosomal activity against South American Trypanosoma cruzi bloodstream trypomastigotes at 80.4 uM; assay type: functional
[9] = system: Trypanosoma brucei rhodesiense; assay: Antitrypanosomal activity against Trypanosoma brucei rhodesiense bloodstream trypomastigotes; assay type: functional, organism-based

SMILES | IC50 (J774) [µM] | IC50 [2] [µM] | Ratio IC50 [6] | also measured
C=CC(CC[C@@H](C)[C@H]1CC[C@H]2[C@@H]3CC=C4C[C@@H](O)CC[C@]4(C)[C@H]3CC[C@]12C)(OO)C(C)C (some centres undefined) | 16.4 | 3.2 | 5.2 | IC50 [1]: 0.7 µM; IC50 [3]: 0.7 µM; IC50 [4]: 0.7 µM; IC50 [5]: 0.7 µM
C[C@H]1[C@H](C)CC[C@]2(C)CC[C@]3(C)C(=CC[C@@H]4[C@@]5(C)CC[C@H](O)C(C)(C)[C@@H]5CC[C@]43C)[C@H]12 | 128 | 114 | 1.1 | 
CC[C@H](CC[C@@H](C)[C@H]1CC[C@H]2[C@@H]3CC=C4C[C@@H](O)CC[C@]4(C)[C@H]3CC[C@]12C)C(C)C [BETA-SITOSTEROL] | > 241 | > 241 |  | 
C=C(C)[C@@H]1CC[C@]2(C(=O)O)CC[C@]3(C)[C@H](CC[C@@H]4[C@@]5(C)CC[C@H](O)C(C)(C)[C@@H]5CC[C@]43C)[C@@H]12 [BETULINIC ACID] | 44 | 32.6 | 1.3 | 
C=C(C)[C@@H]1CC[C@]2(CO)CC[C@]3(C)[C@H](CC[C@@H]4[C@@]5(C)CC[C@H](O)C(C)(C)[C@@H]5CC[C@]43C)[C@@H]12 [BETULIN] | 67.1 | 8.9 | 7.4 | 
C=C(C)[C@@H](CC)CC[C@@H](C)[C@H]1CC[C@H]2[C@@H]3CC=C4C[C@@H](O)CC[C@]4(C)[C@H]3CC[C@]12C [CLEROSTEROL] | > 242 | 130 | >1.9 | 
COc1cc2c(c(OC)c1OC)-c1ccc(OC)c(=O)cc1[C@@H](NC(C)=O)CC2 [COLCHICINE] | 0.21 |  |  | 
CC1(C)CC[C@]2(CO)CC[C@]3(C)C(=CC[C@@H]4[C@@]5(C)CC[C@H](O)C(C)(C)[C@@H]5CC[C@]43C)[C@@H]2C1 [ERYTHRODIOL] | 50.3 | 12 | 4.2 | 
C=C(C)[C@@H]1CC[C@]2(C)CC[C@]3(C)[C@H](CC[C@@H]4[C@@]5(C)CC[C@H](O)C(C)(C)[C@@H]5CC[C@]43C)[C@@H]12 [LUPEOL] | > 234 | 45.3 | >5.2 | 
CC1(C)CC[C@]2(C(=O)O)CC[C@]3(C)C(=CC[C@@H]4[C@@]5(C)CC[C@H](O)C(C)(C)[C@@H]5CC[C@]43C)[C@@H]2C1 [OLEANOLIC_ACID] | 130 | 6.4 | 20.6 | Activity (Trypanosoma cruzi [7]): 50%; Activity (Trypanosoma cruzi [8]): 50%
C=CC(O)(CC[C@@H](C)[C@H]1CC[C@H]2[C@@H]3CC=C4C[C@@H](O)CC[C@]4(C)[C@H]3CC[C@]12C)C(C)C (some centres undefined) [SARINGOSTEROL] | > 233 | 7.8 | >30.3 | 
CC[C@H](CC[C@@H](C)[C@H]1CC[C@H]2[C@@H]3CC[C@H]4C[C@@H](O)CC[C@]4(C)[C@H]3CC[C@]12C)C(C)C [STIGMASTANOL] | > 240 | > 240 |  | 
CC[C@H](/C=C/[C@@H](C)[C@H]1CC[C@H]2[C@@H]3CC=C4C[C@@H](O)CC[C@]4(C)[C@H]3CC[C@]12C)C(C)C [STIGMASTEROL] | > 242 | 135 | >1.8 | 
Cc1ccc(C(=O)Nc2ccc(S(=O)(=O)O)c3cc(S(=O)(=O)O)cc(S(=O)(=O)O)c23)cc1NC(=O)c1cccc(NC(=O)Nc2cccc(C(=O)Nc3cc(C(=O)Nc4ccc(S(=O)(=O)O)c5cc(S(=O)(=O)O)cc(S(=O)(=O)O)c45)ccc3C)c2)c1 [SURAMIN] |  | 0.041 |  | 
C[C@H]1[C@H](C)CC[C@]2(C(=O)O)CC[C@]3(C)C(=CC[C@@H]4[C@@]5(C)CC[C@H](O)C(C)(C)[C@@H]5CC[C@]43C)[C@H]12 [URSOLIC ACID] | 13.1 | 2.2 | 6 | Activity (Trypanosoma cruzi [7]): 50%; Activity (Trypanosoma cruzi [8]): 50%
C[C@H]1[C@H](C)CC[C@]2(CO)CC[C@]3(C)C(=CC[C@@H]4[C@@]5(C)CC[C@H](O)C(C)(C)[C@@H]5CC[C@]43C)[C@H]12 [UVAOL] | 156 | 27.8 | 5.6 | 
CC1(C)CC[C@]2(C)CC[C@]3(C)C(=CC[C@@H]4[C@@]5(C)CC[C@H](O)C(C)(C)[C@@H]5CC[C@]43C)[C@@H]2C1 [beta-AMYRIN] | > 234 | 127 | >1.8 | Activity [9]: inactive

Source: ChEMBL document CHEMBL1141252, “Antitrypanosomal activity of triterpenoids and sterols from the leaves of Strychnos spinosa and related compounds” (J Nat Prod, 2007)
